The values below come from PMC6941357, “An in vitro toolbox to accelerate anti-malarial drug discovery and development” (Malaria Journal, 2020).

Read-outs that look alike come from different tables or passages of the source. Marks after values point to notes of the source that are not given here.

One data set relates to 10% FCS in DMEM. Kind of data set: Binding in DMEM with 10% FCS via ultracentrifugation. In kind it is in vitro ADME, calf. On the procedure:
(§1) Dulbecco’s Modified Eagle’s Medium (DMEM) containing GlutaMAX-I was purchased from Invitrogen (Thermo Fisher Scientific) and stored at 4 °C. Medium was prepared by adding heat inactivated foetal calf serum (FCS, final 10% v/v), penicillin (final 100 U/mL), streptomycin (final 100 µg/mL) D-glucose (final 4.0 mg/mL) and sodium pyruvate (final 0.1 mg/mL).
(§2) An ultracentrifugation method adapted from a previous publication was initially used to assess plasma protein binding and binding in the other media. […] Additional ultracentrifuge tubes containing spiked matrix were maintained at 37 °C, 5% or 10% CO2 or normal atmosphere conditions, with aliquots being taken within 0.5 h of the start and at the end of ultracentrifugation to serve as controls for the assessment of stability and to obtain a measure of the total concentration (Ctotal). Following ultracentrifugation, the pH was checked and an aliquot of protein-free supernate was taken from each ultracentrifuge tube for determination of the unbound concentration (Cunbound).
(§3) Total matrix and protein free samples were analysed using a matrix matching approach whereby each sample was mixed in a 1:1 ratio with the opposite blank medium (i.e. blank total matrix or blank protein free buffer). For example, plasma samples were mixed with blank pH 7.4 buffer whereas plasma supernatant samples were mixed with blank plasma. Each of the sample sets were then assayed against a common calibration curve prepared in a 1:1 mixture of total matrix and protein free pH 7.4 buffer. […] The standard deviation for fu was calculated using the propagation of errors approach as described previously. The potential for compound degradation was assessed by comparing the average value for Ctotal at the start and end of the experiment.

A further data set concerns the target CYP2C19 (Homo sapiens, UniProt P33261). More on the design: from tissue; host or cells: human liver microsomes. Particulars: human liver microsomes, cited from earlier work. (Liver microsomes are a subcellular fraction often used to study metabolism.)
The subject of another data set is Caco-2 cell monolayers. Particulars: matrix: pH 7.4 buffer; ref 31 (quinine), 78 (DSM421); cited from earlier work.
For data set [1], the system named is human plasma. The data set can be described thus: Plasma protein binding via ultracentrifugation (UC). Conditions: ultracentrifugation, neat plasma. In kind it is in vitro ADME. The gist of the method: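 Pooled human plasma (3–4 donors) spiked and ultracentrifuged; protein-free supernate gave Cunbound, parallel tubes kept at 37 °C gave Ctotal and stability (start vs end). Samples matrix-matched 1:1 with opposite blank and quantified against a common calibration curve; fu SD by error propagation.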

For data set [2], the system named is human plasma. The data set can be described thus: Plasma protein binding via rapid equilibrium dialysis (RED), 10% plasma. In kind it is in vitro ADME. Conditions: RED, 10% plasma corrected for dilution. The method in brief:
(§4)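 Pooled human plasma (3–4 donors) was diluted 1:10 in pH 7.4 phosphate buffer with 0.04 M NaCl, spiked to ~1000–3000 ng/mL total, and dialysed in RED units at 37 °C with shaking. Devices were pre-conditioned with compound in buffer. Neat-plasma fu was back-calculated from 10% plasma Ctotal and Cunbound (mean of n = 3–4).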
Background: In equilibrium dialysis free small molecules cross a membrane that holds back macromolecules.

Data set [3] is described as follows: Blood to plasma partitioning. Conditions: human whole blood, 37 °C. The data set is classed as in vitro ADME, human. The procedure:
Human whole blood was collected and supplied by the Volunteer Blood Donor Registry (Clinical Translation Centre, Walter & Eliza Hall Institute of Medical Research, Parkville, Australia) and used on the day of collection. The haematocrit (Hct) was determined by centrifugation (13,000×g for 3 min using Clemets® Microhaematocrit centrifuge and Safecap® Plain Self-sealing Mylar wrapped capillary tubes) to ensure it was between 0.40 and 0.48. An aliquot was centrifuged (Heraeus, Multifuge 3 S-R; 4500×g) for 10 min to obtain plasma required for matrix matching purposes as described below.
Two aliquots of the spiked whole blood were transferred to fresh microcentrifuge tubes and maintained at 37 °C/5% CO2 in a humidified incubator. The pH was confirmed to be 7.4 ± 0.1 at the start and end of the incubation. At each time point (30 min and 4 h), one whole blood tube was removed from the incubator and mixed by gentle inversion, after which four replicate blood samples were taken and matrix matched with an equal volume of blank plasma. The remainder of the blood sample was centrifuged (Eppendorf, Mini Spin plus; 6700×g) for 2 min for the collection of 4 replicate plasma samples which were similarly matrix matched with an equal volume of blank whole blood. The 1:1 mixtures of blood/plasma were mixed, snap frozen in dry ice and stored at − 80 °C until analysis by LC–MS (Additional file 1: Table S2) against calibration standards prepared in the same mixed matrix. Any further distribution of compound into RBCs at this stage was irrelevant as the cells were lysed during the sample preparation and the total concentration in the mixed matrix was measured for both the calibration standards and samples.
The apparent whole blood-to-plasma partitioning ratio (B/P) was calculated as the ratio of the average concentration in the blood sample to that in the plasma fraction of the same whole blood sample. A standard deviation (SD) for each B/P value was calculated using the propagation of errors approach as described previously.

The target in the next data set is CYP2C9 (Homo sapiens, UniProt P11712). More on the design: from tissue; host or cells: human liver microsomes. Conditions: human liver microsomes, cited from earlier work.
Another data set relates to human liver microsomes. Kind of data set: Binding to human liver microsomes via ultracentrifugation. The data set is classed as in vitro ADME. Particulars: 0.4 mg/mL protein. The gist of the method:
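Unbound fraction by ultracentrifugation: Cunbound measured in protein-free supernate, Ctotal from spiked tubes held at 37 °C, sampled at start and end to check degradation. Matrix was 0.4 mg/mL human liver microsomal protein, 0.1 M phosphate pH 7.4; matrix-matched analysis against one calibration curve.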

Data set [4] in a line: Binding in DMEM with 10% FCS via ultracentrifugation. In kind it is in vitro ADME, calf. Particulars: bovine, DMEM with 10% FCS, pH 7.4. On the procedure: as §1, §2, §3
Data set [5] can be described thus: Plasma protein binding via rapid equilibrium dialysis (RED), 10% plasma. The data set is classed as in vitro ADME, human. Conditions: human, 10% pooled plasma (diluted 1:10), pH 7.4, RED, 10% plasma corrected for dilution. The method in brief:
as §4

The mark [6] stands for this setting: presaturation of device and 24 h dialysis.

CYP2C19, sequence (P33261 whole entry): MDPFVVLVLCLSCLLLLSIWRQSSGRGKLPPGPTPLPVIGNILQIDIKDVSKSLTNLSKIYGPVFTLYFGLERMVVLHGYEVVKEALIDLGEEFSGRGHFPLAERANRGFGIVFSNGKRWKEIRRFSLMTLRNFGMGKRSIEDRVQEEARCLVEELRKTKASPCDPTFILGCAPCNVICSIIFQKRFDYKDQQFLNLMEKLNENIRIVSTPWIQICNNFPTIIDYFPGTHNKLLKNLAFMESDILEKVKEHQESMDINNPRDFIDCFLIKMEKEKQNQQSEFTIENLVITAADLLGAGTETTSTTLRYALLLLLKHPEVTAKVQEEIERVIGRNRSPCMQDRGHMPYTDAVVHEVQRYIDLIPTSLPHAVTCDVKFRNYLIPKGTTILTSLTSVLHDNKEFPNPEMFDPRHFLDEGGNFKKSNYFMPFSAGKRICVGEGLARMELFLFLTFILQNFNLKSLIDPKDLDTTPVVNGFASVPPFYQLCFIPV
CYP2C9, sequence (P11712 whole entry): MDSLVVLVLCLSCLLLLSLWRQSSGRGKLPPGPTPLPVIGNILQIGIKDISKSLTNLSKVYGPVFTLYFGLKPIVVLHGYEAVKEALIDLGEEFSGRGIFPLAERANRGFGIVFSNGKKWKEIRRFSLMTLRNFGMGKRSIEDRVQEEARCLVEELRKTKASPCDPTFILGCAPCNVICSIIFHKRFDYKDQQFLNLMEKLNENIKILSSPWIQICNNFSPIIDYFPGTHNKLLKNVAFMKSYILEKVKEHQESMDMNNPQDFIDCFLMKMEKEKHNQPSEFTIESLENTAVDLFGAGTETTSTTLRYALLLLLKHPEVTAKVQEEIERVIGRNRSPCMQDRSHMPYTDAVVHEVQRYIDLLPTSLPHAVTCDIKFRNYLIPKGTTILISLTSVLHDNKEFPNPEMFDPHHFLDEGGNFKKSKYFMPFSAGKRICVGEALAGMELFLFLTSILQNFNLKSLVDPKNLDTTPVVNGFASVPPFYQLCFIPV

The term IC50 denotes the concentration that inhibits the measured activity by half. One may read the efflux ratio as a quotient of directional permeabilities that is used to spot active efflux. As to `Cc1cc(Nc2ccc(C(F)(F)F)nc2)n2nc(C(C)(F)F)nc2n1` [DSM421], in the data set with 10% FCS in DMEM, the “Fraction unbound, 10% FCS in DMEM” value came out at 0.615 ± 0.043. The IC50 on CYP2C19 was greater than 20 µM. At CYP2C19 (nmi = no measurable inhibition), the “CYP2C19 % inhibition at max conc” value is given as “nmi”. Also, in the data set with Caco-2 cell monolayers, the “A–B Papp” value is 33 ± 2.5 10^−6 cm/s, the “B–A Papp” value is recorded as 46 10^−6 cm/s and the efflux ratio is 1.4. Moreover, the “Fraction unbound, human plasma” value with human plasma [1] worked out at 0.039 ± 0.007. Moreover, the “Fraction unbound, human plasma” value with human plasma [2] (6 h dialysis) is recorded as 0.035 (0.0044). Also, the “B/P (whole blood to plasma partitioning ratio)” value in data set [3] stood at 0.53 ± 0.03. On CYP2C9, the “CYP2C9 % inhibition at max conc” value is 16% and the IC50 was greater than 20 µM.
Turning to `O=C(NCCN1CCCC1)c1cc(-c2ccc(CN3CCOCC3)cc2)nc2ccc(F)cc12` [M5717], in the data set with human liver microsomes, the “Fraction unbound, HLM” value was 0.50 ± 0.041. Further, in the data set with 10% FCS in DMEM, the “Fraction unbound, 10% FCS in DMEM” value is reported as 0.638 ± 0.065. Moreover, the “Fraction unbound, human plasma” value with human plasma [1] is 0.34 (0.021); in the data set on human plasma [2] (6 h dialysis), 0.24 ± 0.0020^b. In data set [3], the “B/P (whole blood to plasma partitioning ratio)” value came to 1.3 ± 0.02.
A word on the fraction unbound: it is the share of the substance not bound to proteins or other matrix. As for `Cc1cc(Nc2ccc(S(F)(F)(F)(F)F)cc2)n2nc(C(C)(F)F)nc2n1` [DSM265], the fraction unbound at […], 1000 ng/mL in data set [4] came out at 0.366 ± 0.041. On CYP2C19, the “CYP2C19 % inhibition at max conc” value is on record as 19% and the IC50 was greater than 20 µM. In [5] (6 h dialysis), this compound registered a fraction unbound at 6 h of 0.002. In data set [5] (setting [6]), this compound came in with a fraction unbound at 24 h of 0.0018 ± 0.0001. For the same compound, on CYP2C9, the “CYP2C9 % inhibition at max conc” value is recorded as 25% and the IC50 was greater than 20 µM.
`CS(=O)(=O)O.FC1CCN(CCOc2ccc(C3CCC4(CC3)OOC3(OO4)C4CC5CC(C4)CC3C5)cc2)CC1` (centres unmarked) [TDD-E209]: in the data set with human liver microsomes, the “Fraction unbound, HLM” value is 0.0003 ± 0.000010. Further, the 50% inhibitory concentration (IC50) on CYP2C19 and on CYP2C9 was greater than 20 µM each time. For the same compound, the “CYP2C19 % inhibition at max conc” value at CYP2C19 (nmi = no measurable inhibition) is given as “nmi”. The “Fraction unbound, human plasma” value is on record as 0.094 (0.011) in the data set on human plasma [1], less than 0.0001 with human plasma [2] (6 h dialysis) and < 0.0001^c in the data set on human plasma [2] (setting [6]). For the same compound, the “B/P (whole blood to plasma partitioning ratio)” value in [3] turned out to be 0.51 ± 0.08. Besides, the “CYP2C9 % inhibition at max conc” value on CYP2C9 (nmi = no measurable inhibition) is given as “nmi”.
